ChEMBL document CHEMBL3808366, “Facile and efficient synthesis and biological evaluation of 4-anilinoquinazoline derivatives as EGFR inhibitors” (Bioorg Med Chem Lett, 2016)
Activity calls are given as the source filed them. No cut-off for these calls is given here.

Tests used:
[1] = target: Epidermal growth factor receptor (Homo sapiens) (UniProt P00533); settings: NCI-H1975, at 1 µM
Description: Inhibition of EGFR autophosphorylation at Tyr1068 site in human NCI-H1975 cells at 1 uM by western blotting analysis

[2] = Antiproliferative activity against human SMMC7721 cells over expressing EGFR after 48 hrs by MTT assay; format: functional, cell-based; settings: SMMC-7721, 48 h
[3] = tested on: HepG2; assay: Antiproliferative activity against human HepG2 cells over expressing EGFR after 48 hrs by MTT assay; format: functional, cell-based; settings: HepG2, 48 h
[4] = tested on: NCI-H1975; assay: Antiproliferative activity against human NCI-H1975 cells over expressing EGFR after 48 hrs by MTT assay; format: functional, cell-based; settings: NCI-H1975, 48 h

Chain of Epidermal growth factor receptor (Homo sapiens) (P00533 whole entry): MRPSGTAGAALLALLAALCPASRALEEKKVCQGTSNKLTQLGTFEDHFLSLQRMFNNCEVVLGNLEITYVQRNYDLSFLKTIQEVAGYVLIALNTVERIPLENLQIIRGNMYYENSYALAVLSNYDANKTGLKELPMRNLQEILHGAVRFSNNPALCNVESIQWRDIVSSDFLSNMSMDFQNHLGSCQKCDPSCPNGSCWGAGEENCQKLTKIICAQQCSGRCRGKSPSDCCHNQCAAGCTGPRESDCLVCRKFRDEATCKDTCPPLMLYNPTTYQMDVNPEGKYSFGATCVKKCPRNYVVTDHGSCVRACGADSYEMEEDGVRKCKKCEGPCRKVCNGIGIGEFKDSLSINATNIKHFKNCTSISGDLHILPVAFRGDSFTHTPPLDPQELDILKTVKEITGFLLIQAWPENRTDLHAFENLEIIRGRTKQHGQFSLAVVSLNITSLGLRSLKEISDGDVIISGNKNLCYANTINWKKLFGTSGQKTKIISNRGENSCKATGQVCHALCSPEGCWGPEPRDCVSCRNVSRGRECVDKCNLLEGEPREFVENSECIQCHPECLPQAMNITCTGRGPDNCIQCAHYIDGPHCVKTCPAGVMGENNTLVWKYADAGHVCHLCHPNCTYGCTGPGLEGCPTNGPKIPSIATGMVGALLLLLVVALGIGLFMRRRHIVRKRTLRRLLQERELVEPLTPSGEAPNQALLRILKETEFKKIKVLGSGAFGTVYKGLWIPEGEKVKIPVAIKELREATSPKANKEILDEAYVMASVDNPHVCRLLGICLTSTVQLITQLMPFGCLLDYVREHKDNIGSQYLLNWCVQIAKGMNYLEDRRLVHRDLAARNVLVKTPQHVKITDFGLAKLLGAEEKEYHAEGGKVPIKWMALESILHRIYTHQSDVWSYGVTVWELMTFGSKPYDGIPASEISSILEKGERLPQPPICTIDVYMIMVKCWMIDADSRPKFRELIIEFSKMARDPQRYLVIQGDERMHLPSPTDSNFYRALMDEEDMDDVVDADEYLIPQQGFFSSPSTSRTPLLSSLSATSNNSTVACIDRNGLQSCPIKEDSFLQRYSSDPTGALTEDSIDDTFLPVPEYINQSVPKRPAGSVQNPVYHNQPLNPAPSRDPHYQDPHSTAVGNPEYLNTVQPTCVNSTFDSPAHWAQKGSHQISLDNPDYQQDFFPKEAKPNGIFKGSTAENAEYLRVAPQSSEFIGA

| SMILES | inhibition [1] | IC50 [3] [µM] | IC50 [4] [µM] | IC50 [2] [µM] |
| --- | --- | --- | --- | --- |
| Cc1nc(Nc2ccc(F)c(Cl)c2)c2cc(NC(=O)CCN(C)C)ccc2n1 | Active | 1.86 | 0.11 | 1.04 |
| CN(C)CCC(=O)Nc1ccc2ncnc(Nc3ccc(F)c(Cl)c3)c2c1 | Active | 9.36 | 0.36 | 9.54 |
| Cc1nc(Nc2ccc(F)c(Cl)c2)c2cc(NC(=O)CCN3CCCCC3)ccc2n1 | – | 3.21 | 0.87 | 2.84 |
| Fc1ccc(Nc2ncnc3ccccc23)cc1 | – | 29 | 23.5 | 22 |
| Fc1ccccc1Nc1ncnc2ccccc12 | – | 69.3 | 10.6 | 93.9 |
| COc1cccc(Nc2ncnc3ccccc23)c1 | – | 24.2 | 31.3 | 15.6 |
| Cc1nc(Nc2ccc(F)c(Cl)c2)c2cc(NC(=O)CCN3CCOCC3)ccc2n1 | – | 1.98 | 1.14 | 3.26 |
| c1ccc(Nc2ncnc3ccccc23)cc1 | – | 65.8 | 35.6 | 35.6 |
| Fc1cccc(Nc2ncnc3ccccc23)c1 | – | 13.2 | 7.58 | 15 |
| Fc1ccc(Nc2ncnc3ccccc23)cc1Cl | – | > 100 | 4.51 | 50.1 |
| Brc1cccc(Nc2ncnc3ccccc23)c1 | – | 78.6 | 10.6 | 24.7 |

Further molecules by falling IC50 [3], results first:

| inhibition [1] | IC50 [3] [µM] | IC50 [4] [µM] | SMILES | IC50 [2] [µM] |
| --- | --- | --- | --- | --- |
| – | 23.5 | 10.4 | Clc1cccc(Nc2ncnc3ccccc23)c1 | 22 |
| – | 16.3 | 3.01 | O=C(CCN1CCOCC1)Nc1ccc2ncnc(Nc3ccc(F)c(Cl)c3)c2c1 | 19.6 |
| – | 14.8 | 0.68 | CNCCC(=O)Nc1ccc2ncnc(Nc3ccc(F)c(Cl)c3)c2c1 | 20.9 |
| – | 8.59 | 1.85 | O=C(CCN1CCCCC1)Nc1ccc2ncnc(Nc3ccc(F)c(Cl)c3)c2c1 | 12.6 |
| – | 1.13 | 0.48 | CNCCC(=O)Nc1ccc2nc(C)nc(Nc3ccc(F)c(Cl)c3)c2c1 | 1.98 |
